Assays:
[1] = system: mast cells; settings: concentrations higher than those with antihistaminic / stabilizing activity; cited from earlier work
[2] = Surface Activity Rating: change in surface pressure of SOPC monolayer in Langmuir trough; format: physicochemical; settings: initial surface pressure 30 mN/m, 24° C.
From the text: The Surface Activity Rating is obtained by determining the interaction of an amphipathic anti-allergy drug (“test compound”) in buffer alone with a phospholipid monolayer. Test compound/mast cell membrane interaction is mimicked in a phospholipid monolayer spread onto an aqueous buffer in a modified Langmuir trough. In this system, test compound-membrane interaction is quantified by determining the change in surface pressure (Δπ in mN/m) of a monomolecular film of 1-stearoyl-2-oleoyl-sn-glycero-3-phosphocholine (SOPC) spread at an initial surface pressure of 28-32 mN/m on an aqueous buffer sub-phase. The initial surface pressure of 28-32 mN/m is chosen because this pressure mimics that of most mammalian cell membranes. […]
Surface pressure is measured using an automated interfacial monitor-controller built around a Cahn 27 electrobalance equipped with a 24 ga. nichrome wire Wilhelmy probe. […]
The effect of test compound on surface pressure is determined by a continuous exchange of the aqueous phase with a concentrated solution of the test compound in buffer. […] The concentration of test compound in the aqueous phase is determined from the fraction of sub-phase volume exchanged and the concentration of the solute in the concentrated solution. […]

[3] = system: human conjunctival mast cells; settings: purified preparations of human conjunctival mast cells; Yanni et al. 1996; cited from earlier work

increase in surface pressure (Surface Activity Rating) ([2]; pH 7.5, concentration range of 0-3.5 mM)	increase in surface pressure (Surface Activity Rating) ([2]; pH 7.5, concentration in aqueous sub-phase increased from 0 to 5 mM)	SMILES	effect on histamine release from mast cells as a function of concentration [1]	effect on histamine release as a function of concentration [3]
–	–	O=C(O)c1cc(=O)c2c(OCC(O)COc3cccc4oc(C(=O)O)cc(=O)c34)cccc2o1 [cromolyn sodium]	biphasic behavior	–
15 mN/m	–	CN1CCC(=C2c3ccccc3CC(=O)c3sccc32)CC1 [ketotifen, 4,9-dihydro-4-(1-methyl-4-piperidinyl-idene)-10H-benzo[4,5]cyclohepta-[1,2-b]thiophen-10-one]	–	biphasic behavior
–	7.1 mN/m	CN(C)CC/C=C1/c2ccccc2COc2ccc(CC(=O)O)cc21 [olopatadine, Z-11-(3-dimethylaminopropylidene)-6,11-dihydrodibenz[b,e]oxepin-2-acetic acid]	does not provoke a release of histamine from mast cells	–

From US6420399B1, “Topical ophthalmic mast cell stabilizers for treating allergic eye disease” (Alcon Manufacturing, Ltd., priority 1999, dated 2002)
